The source of these data is patent US8426589B2, “Process for production of quinazoline derivative” (Shionogi & Co., Ltd., priority 2008, dated 2013).

SMILES strings stand for the structures.

The nature of this series: Stability test of the crystalline form (sealed glass vial, HPLC). Type of series: physicochemical. As for the experimental part:
The crystalline form of the compound (IV) monohydrate was sealed in a glass vial and allowed it to stand for 20 days to determine the quality change before and after the test. Under heating at 50° C. (for 21 hr) or 80° C. (for 9 hr) were also conducted.
The quality degradation was not seen for the crystalline form of the compound (IV) monohydrate after 20 days and neither at 50° C. nor 80° C.
HPLC condition: Column Unison UK-C18 3 μm;
Mobile phase: 0.1% trifuluoroacetic acid aq. in acetnitrile;
Column temperature: 30° C.
Detector: UV spectrophotometer (254 nm)

Turning to `CC#CC(=O)c1ccc2ncnc(Nc3ccc(OCc4cccc(F)c4)c(Cl)c3)c2c1` [compound (IV) monohydrate, 4-(3-chloro-4-(3-fluorobenzyloxy)phenylamino)-6-(1-oxo-2-butyn-1-yl)quinazoline], the “remaining ratio (HPLC, peak at Retention Time 10.2 min)” value (shortened to “remaining ratio”) runs as follows: (ca. 50° C., 15 h) 99.2; (ca. 50° C., 21 h) 99.1; (ca. 50° C., Control (before the test)) 99.4; (ca. 80° C., 3 h) 99.1; (ca. 80° C., 9 h) 99.1; (ca. 80° C., Control (before the test)) 99.1. Further, the “remaining ratio” value (rt (ca. 22° C.), sealed in a glass vial, 20 days) came out at 99.3 and the “remaining ratio” value (rt (ca. 22° C.), sealed in a glass vial, Control (before the test)) is 99.1. The quality degradation entry by setting is: (heating at 50° C. (for 21 hr)) “not seen”; (heating at 80° C. (for 9 hr)) “not seen”; (sealed in a glass vial, after 20 days) “not seen”.
